# Laboratory results: patent US10022382B2, “RNA polymerase I inhibitors and uses thereof” (Tel HaShomer Medical Research Infrastructure and Services …, priority 2013, dated 2018)
# Experiments:
# Pol I = assay: Cell-free Pol I transcription assay; assay type: biochemical, human; settings: 200 nM
# Procedure: Cell-free Pol I transcription assay was performed according to Drygin et al. (2010). Briefly, a reaction mixture consisting of 8 units of HeLa scribe nuclear extract (Promega) in transcription buffer and MgCl2 (4 mM) was combined with POL1-Inhibitor (200 nM) and […] a-amanitin (Sigma) for 20 minutes at ambient temperature. Following, 10 ng DNA template (GENEWIZ, Inc.; http://www(dot)genewiz(dot)com(dot)cn) corresponding to the (−160/+350) region on human rDNA was added and the reaction was incubated for 5 minutes at ambient temperature. Transcription was initiated by adding rNTPs mix to a final concentration of 1 mM and the reaction was incubated for 1 hour at 30° C. Afterward, DNase I (Ambion kit) was added and the reaction was further incubated for 25 minutes at 37° C. DNase activity was terminated with adding an inactivation solution according the manufacturer's protocol. The samples were then subjected for RNA isolation (following the same procedure described in Example 3 hereinabove). Pellets of RNA were re-suspended in DEPC-treated double distilled water and subjected for reverse transcription by a High capacity kit (Applied Biosystems). The resultant transcripts were analyzed by qRT-PCR in a Light cycler 480 system using primer pairs (Sigma) and probe for real-time PCR. […]
# Mouse splenocytes = assay: XTT cell viability assay, PHA-stimulated splenocytes; assay type: cell-based; settings: 72 hours
# Procedure: Cell viability was assessed by the 2,3 bis [2-Methoxy-4-nitro-5-sulfophenyl]-2H-tetrazolium-5-carboxanilide (XTT) assay (Biological Industries, Kibbutz Beit Hemeek, Israel), which measures the reduction of a tetrazolium component (XTT) into soluble formazan product by the mitochondria of viable cells. The intensity of the dye obtained is proportional to the number of metabolic active cells. On the day of measurement, cells were washed and XTT was added according to the manufacturer's instructions. Plates were incubated at 37° C. for 2-5 hours. The absorbance was read at 450 nm.
# Mouse splenocytes were removed and spleenocytes were plated (250,000 cell/well) in DMEM+10% FCS+P/S+Q and […] Phytohaemaglutinin (PHA), in the presence of elevated concentrations (25-400 nM) of RAM-0 (Compound 1), RAM-1 (Compound 4), RAM-2 (Compound 2) or RAM-3 (Compound 3) for 72 hours. Cells cultured without PHA served as control. Control mice at zero are mice splenocytes with PHA stimulation.
# Following incubation, cell viability was determined by XTT assay, as described above.
# pre-rRNA = assay: Q-RT-PCR of pre-rRNA in splenocytes of treated EAE mice; assay type: in vivo; settings: 12.5 mg/Kg, 17 days following immunization
# Procedure: RNA Extraction: For in vivo experiments spleens from EAE mice were isolated at day 17 post immunization and splenocytes were re-stimulated for 72 h hours in the presence of 5.0 μg/ml MOG35-55. For in-vitro experiments spleens from intact mice were isolated and splenocytes were stimulated with for 72 h in the presence of PHA. RNA was extracted from splenocytes of both the in-vitro and in-vivo experiments by robotic ABI PRISM, Applied biosystem 6100 Nucleic Acid Prep Station. To avoid genomic DNA contamination samples were treated with DNase I (Roche). The quality and integrity of the total RNA preparation was confirmed using a NanoDrop 2000c Spectrophotometer (Thermo Scientific).
# Quantitative RT-PCR of Pre-rRNA: Complementary DNA was obtained from the extracted RNA by the High capacity cDNA reverse transcription kit (Applied Biosystems, CA, USA) following manufacturer's instructions. To confirm the role of POL1 pathway suppression by POL1-Inhibitors, the expression level of pre-rRNA transcript, a key gene of the RNA polymerase I pathway, was evaluated by Q-RT-PCR (n=3 per group). All PCR reactions were performed on a Light Cycler 480 instrument (Roche Diagnostic). The pre-rRNA, specific primers used were Forward: […] (SEQ ID NO: 69) and Reverse: […] (SEQ ID NO: 70) with a quantification probe (Roche, Probe ID #1, cat. no. 04684974001). […]
# naive mice = assay: Single dose oral toxicity in naive mice; assay type: in vivo; settings: single oral dose 3 mg/kg to 500.0 mg/kg, 24 h
# Procedure: The toxicity of oral administration of a single dose of Compound 10 was tested in naïve mice using range from 3 mg/kg to 500.0 mg/kg.
# splenocytes = assay: Viability, proliferation and apoptosis of MOG 35-55 incubated splenocytes from immunized mice (XTT, BrdU, flow cytometry); assay type: cell-based; settings: splenocytes 14 days post immunization, 72 h MOG 35-55, vs vehicle
# Procedure: In addition, viability, proliferation and apoptosis of splenocytes isolated from mice 14 days post immunization and incubated for 72 h with MOG 35-55 were assessed by XTT, BrdU and flow cytometry (Annexin V and propidium iodide double staining) assays, respectively.
# [1] = Toxicity (LD50, survival) in the EAE model, continuous administration; assay type: in vivo; settings: C57BL/6J, mouse, in vivo, oral; EAE prevention model, continuous administration
# Procedure: (§1) The animals were evaluated for signs of acute toxicity and survival during the entire administration period in the EAE model.
# (§2) The therapeutic index (LD50/ED50), which is also referred to herein as Safety Margin (SM), was then determined based on the EAE model.
# C57BL/6J mice = assay: as above; assay type: in vivo
# Procedure: as §1, §2
# [2] = EAE mice, 30 mg/kg every alternate day until disease onset
smiles,measurement,setting,value
"Cc1cnc(CNC(=O)c2/c(=N/c3ccccc3)c3ccc(N4CCCN(C)CC4)nc3n3c2sc2ccccc23)cn1 [Compound 10, (E)-2-(4-methyl-1,4-diazepan-1-yl)-N-((5-methylpyrazin-2-yl)methyl)-5-(phenylimino)-5H-benzo[4,5]thiazolo[3,2-a][1,8]naphthyridine-6-carboxamide]",inhibition of Pol I transcription from the pre-rRNA promoter,Pol I,about 40%
same,suppression of splenocyte proliferation compared to Compound 1 (XTT),Mouse splenocytes,improved performance
same,IC50,"Mouse splenocytes; Splenocyte, mouse splenocytes, 25-400 nM",0.04 µM
same,decrease in pre-rRNA mRNA levels compared to vehicle,pre-rRNA,5.9 folds
same,behavioral changes,naive mice,No behavioral changes
same,survival,naive mice,No effect on survival
same,apoptosis (Annexin V and propidium iodide),splenocytes,induced apoptosis in CD4+ lymphocytes
same,cell proliferation (BrdU),splenocytes,suppressed cell proliferation
same,viability (XTT),splenocytes,reduced viability
same,LD50,[1],30 mg/kg
same,survival,"C57BL/6J mice; C57BL/6J, mouse, in vivo, 28 days",100%
same,behavioral changes,C57BL/6J mice; [2],No behavioral changes
same,survival,C57BL/6J mice; [2],No effect on survival
same,tolerability,C57BL/6J mice; [2],well tolerated
same,signs of toxicity,"C57BL/6J mice; all treated groups, EAE model, alternate days",without apparent signs of toxicity
